The record followed here is US9346761B2, “Arginine methyltransferase inhibitors and uses thereof” (Epizyme, Inc., priority 2013, dated 2016).

One assay concerns the target T1, Full-length human PRMT6 (Homo sapiens, UniProt Q96LA8).
T1 construct: Flag-PRMT6-His was eluted with 200 ug/ml FLAG peptide in the same buffer; made in house; host or cells: HEK 293F cells (BacMam virus, pFastBacMam)
The assay is described as follows: PRMT6 biochemical assay (3H-SAM Flashplate, peptide substrate). A digest of the protocol:
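Read-out is 3H-methylated histone H4 (36-50) peptide bound to streptavidin Flashplates after a cold-SAM stop. Baculovirus-expressed Flag-PRMT6-His met compound for 30 min at room temperature before SAM and peptide; Bicine pH 7.6 buffer. IC50 fitted to % inhibition normalized to SAH (min) and DMSO (max).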

A further assay concerns the target T2, Full-length human PRMT8 (Homo sapiens, UniProt Q9NR22).
T2 construct: Full-length human PRMT8 (NM_019854.4) isoform 1 transcript clone; made in house
The assay is described as follows: PRMT8 biochemical assay (3H-SAM Flashplate, peptide substrate). An outline of the steps:
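Methylation of a biotinylated H4 (31-45) peptide by ³H-SAM was counted after streptavidin Flashplate capture. Purified recombinant PRMT8 and compound were preincubated 30 min at room temperature in Bicine buffer pH 7.6 with TCEP, BSG and Tween 20, and reactions were stopped with unlabeled SAM (final 400 μM). Inhibition versus DMSO and SAH controls was fit by 3- or 4-parameter curves.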

T1 sequence (Q96LA8 with tags, fused parts or gaps): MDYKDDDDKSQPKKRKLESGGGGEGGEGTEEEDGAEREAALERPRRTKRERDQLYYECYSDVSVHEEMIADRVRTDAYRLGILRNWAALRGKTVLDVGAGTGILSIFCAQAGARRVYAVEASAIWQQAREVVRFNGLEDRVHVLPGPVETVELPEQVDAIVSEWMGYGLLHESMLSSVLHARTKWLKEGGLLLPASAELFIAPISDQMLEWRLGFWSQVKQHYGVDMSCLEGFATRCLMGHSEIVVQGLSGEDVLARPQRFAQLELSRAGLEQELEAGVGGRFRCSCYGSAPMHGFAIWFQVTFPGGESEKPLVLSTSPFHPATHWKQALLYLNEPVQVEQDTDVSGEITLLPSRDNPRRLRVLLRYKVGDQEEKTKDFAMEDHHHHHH
T2 sequence (Q9NR22 whole entry, canonical isoform): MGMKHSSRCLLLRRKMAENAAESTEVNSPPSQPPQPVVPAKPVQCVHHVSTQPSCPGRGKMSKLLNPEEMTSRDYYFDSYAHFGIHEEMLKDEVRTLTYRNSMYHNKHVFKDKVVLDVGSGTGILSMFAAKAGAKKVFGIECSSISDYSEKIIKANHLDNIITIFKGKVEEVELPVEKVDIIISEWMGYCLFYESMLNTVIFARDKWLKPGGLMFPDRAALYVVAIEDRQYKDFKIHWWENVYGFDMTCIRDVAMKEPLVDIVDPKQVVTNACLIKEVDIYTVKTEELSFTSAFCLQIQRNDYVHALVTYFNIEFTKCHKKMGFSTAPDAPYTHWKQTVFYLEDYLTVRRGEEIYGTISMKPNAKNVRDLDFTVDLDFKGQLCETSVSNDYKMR

`CNCCN(C)Cc1c[nH]nc1-c1cccc(OC)c1` [Compound 24]: the IC50 (commonly the concentration that inhibits the measured activity by half) was under 100 nM against Full-length human PRMT6 and 101 to 1000 nM against Full-length human PRMT8.

As for `CNCCN(C)Cc1c[nH]nc1-c1cccc(C#N)c1` [Compound 22], the IC50 at Full-length human PRMT6 is under 100 nM; against Full-length human PRMT8, 1010 to 3000 nM.

For the molecule `CNCCN(C)Cc1cn(C)nc1-c1ccc(Oc2ccccc2)cc1` [Compound 207], the results for the IC50 on Full-length human PRMT6 and on Full-length human PRMT8 were under 100 nM and 101 to 1000 nM, respectively.

For `CNCCN(C)Cc1cnn(C(C)C)c1-c1ccc(F)cc1` [Compound 16], the results for the IC50 on Full-length human PRMT6 and at Full-length human PRMT8 were under 100 nM and over 10000 nM, respectively.

In the case of `CNCCN(C)Cc1cnn(CC(=O)OC)c1-c1ccc(OC(C)C)cc1` [Compound 249], the IC50 lay in the range of 101 to 1000 nM on Full-length human PRMT6 and 1010 to 3000 nM at Full-length human PRMT8.

For the molecule `CN(CCN)Cc1n[nH]cc1-c1ccc(Oc2ccccc2)cc1` [Compound 203], the IC50 on Full-length human PRMT6 is under 100 nM; at Full-length human PRMT8 it was 101 to 1000 nM.

As to `CNCCN(C)Cc1n[nH]cc1-c1ccc(OC(C)C)c(Cl)c1` [Compound 212], the IC50 on Full-length human PRMT6 and against Full-length human PRMT8 was under 100 nM each time.

For `CN(CCN)Cc1c[nH]nc1-c1ccc(Oc2ccccc2)c(F)c1` [Compound 224, N^1-((3-(3-fluoro-4-phenoxyphenyl)-1H-pyrazol-4-yl)methyl)-N^1-methylethane-1,2-diamine], the IC50 against Full-length human PRMT6 is under 100 nM; on Full-length human PRMT8 it was 101 to 1000 nM.

Consider `CNCCN(C)Cc1c[nH]nc1-c1ccc(O)cc1` [Compound 27], for which the values for the IC50 on Full-length human PRMT6 and against Full-length human PRMT8 were under 100 nM and 101 to 1000 nM, respectively.

`CN(CCNC1CC1)Cc1c[nH]nc1-c1ccc(C#N)cc1` [Compound 183]: the values for the IC50 against Full-length human PRMT6 and on Full-length human PRMT8 were 101 to 1000 nM and 3010 to 10000 nM, respectively.

As for `CNCCN(C)Cc1c[nH]nc1-c1ccc(Oc2ccccc2)cc1` [Compound 37], the IC50 against Full-length human PRMT6 and against Full-length human PRMT8 was under 100 nM throughout.

Regarding `CN(CCN)Cc1c(-c2ccc(C#N)cc2)ncn1C` [Compound 222], the IC50 against Full-length human PRMT6 fell in the range of 1010 to 3000 nM; on Full-length human PRMT8, 3010 to 10000 nM.

On to `CNCCN(C)Cc1cn(C)nc1-c1ccc(OC(C)C)c(Cl)c1` [Compound 206], for which the IC50 against Full-length human PRMT6 is under 100 nM; against Full-length human PRMT8, 101 to 1000 nM.

Regarding `CNCCN(C)Cc1c[nH]nc1-c1ccc(C)cc1C` [Compound 29], the IC50 against Full-length human PRMT6 was under 100 nM; against Full-length human PRMT8 it was 1010 to 3000 nM.

Take `CNCCN(C)Cc1c[nH]nc1-c1ccccc1OC(F)(F)F` [Compound 40]: the IC50 against Full-length human PRMT6 fell in the range of 101 to 1000 nM; against Full-length human PRMT8, 3010 to 10000 nM.

`CN(CCN(C)C1CC1)Cc1c[nH]nc1-c1ccc(C#N)cc1` [Compound 184]: the IC50 lay in the range of 1010 to 3000 nM against Full-length human PRMT6 and 3010 to 10000 nM at Full-length human PRMT8.

`CNCCN(C)Cc1c[nH]nc1-c1cccc([N+](=O)[O-])c1` [Compound 21]: the IC50 against Full-length human PRMT6 is under 100 nM; at Full-length human PRMT8, 101 to 1000 nM.

For the molecule `CNCCN(C)Cc1c[nH]nc1-c1ccccc1C(F)(F)F` [Compound 38], the IC50 at Full-length human PRMT6 was in the range of 101 to 1000 nM; against Full-length human PRMT8, 3010 to 10000 nM.

Take `CNCCN(C)Cc1c[nH]nc1-c1ccc(OCCCOC)cc1` [Compound 209]: the IC50 was under 100 nM at Full-length human PRMT6 and 101 to 1000 nM on Full-length human PRMT8.

Turning to `CN(CCN)Cc1c[nH]nc1-c1ccc(Oc2cccc(F)c2)cc1` [Compound 205], the IC50 at Full-length human PRMT6 was under 100 nM; against Full-length human PRMT8 it was 101 to 1000 nM.

Take `CN(CCN1CCC1)Cc1c[nH]nc1-c1ccc(C#N)cc1` [Compound 185]: the IC50 against Full-length human PRMT6 was 101 to 1000 nM; against Full-length human PRMT8 it was 3010 to 10000 nM.

Consider `CNCCN(C)Cc1cn(C(C)C)nc1-c1ccc(F)cc1` [Compound 15], for which the IC50 on Full-length human PRMT6 was 101 to 1000 nM; on Full-length human PRMT8 it was over 10000 nM.

Take `CN(CCN)Cc1c[nH]nc1-c1ccc2c(c1)N(C)C(=O)CO2` [Compound 196]: the IC50 against Full-length human PRMT6 is under 100 nM; on Full-length human PRMT8, 1010 to 3000 nM.

Regarding `CNCCN(C)Cc1c[nH]nc1-c1ccc(OCCCOC)c(Cl)c1` [Compound 228], the IC50 was under 100 nM against Full-length human PRMT6 and 101 to 1000 nM on Full-length human PRMT8.

With `CN(CCN)Cc1c[nH]nc1-c1ccc(OCCO)cc1` [Compound 194], the IC50 at Full-length human PRMT6 was under 100 nM; on Full-length human PRMT8, 101 to 1000 nM.

With `CNCCN(C)Cc1c[nH]nc1-c1ccccc1OC` [Compound 23], the values for the IC50 on Full-length human PRMT6 and against Full-length human PRMT8 were 101 to 1000 nM and 3010 to 10000 nM, respectively.

Consider `CNCCN(C)Cc1cn[nH]c1-c1ccc(C#N)cc1` [Compound 17], for which the IC50 on Full-length human PRMT6 and against Full-length human PRMT8 was under 100 nM throughout.

On to `CNCCN(C)Cc1cn(CCCC(O)CO)nc1-c1ccc(F)cc1` (centres unmarked) [Compound 30], for which the IC50 was 101 to 1000 nM against Full-length human PRMT6 and over 10000 nM against Full-length human PRMT8.

In the case of `CN(CCN)Cc1c[nH]nc1-c1ccc2c(c1)OCC(=O)N2C` [Compound 192], the IC50 against Full-length human PRMT6 is under 100 nM; at Full-length human PRMT8, 1010 to 3000 nM.

In the case of `CNCCN(C)Cc1c[nH]nc1-c1ccc(Oc2ccccc2)c(C#N)c1` [Compound 221], the IC50 is under 100 nM at Full-length human PRMT6 and 101 to 1000 nM on Full-length human PRMT8.

Turning to `CNCCN(C)Cc1cn(CC(=O)O)nc1-c1ccc(OC(C)C)cc1` [Compound 250], the figures for the IC50 at Full-length human PRMT6 and at Full-length human PRMT8 were 3010 to 10000 nM and 1010 to 3000 nM, respectively.

In the case of `CNCCN(C)Cc1c[nH]nc1-c1ccc(C(F)(F)F)cc1` [Compound 174], the IC50 is under 100 nM against Full-length human PRMT6 and 101 to 1000 nM on Full-length human PRMT8.

Regarding `CCC(=O)N1CCN(c2ccc(-c3n[nH]cc3CN(C)CCN)cc2)CC1` [Compound 189], the IC50 at Full-length human PRMT6 was under 100 nM; against Full-length human PRMT8 it was 1010 to 3000 nM.

On to `CC(C)CC(=O)N1CCN(c2ccc(-c3n[nH]cc3CN(C)CCN)cc2)CC1` [Compound 180], for which the IC50 against Full-length human PRMT6 was under 100 nM; against Full-length human PRMT8, 3010 to 10000 nM.
